Source: ChEMBL document CHEMBL1152874, “Synthesis of sulfonyl curcumin mimics exerting a vasodilatation effect on the basilar artery of rabbits” (Bioorg Med Chem Lett, 2009)

Experiment: Vasodilation activity against depolarization-induced contraction in anaesthetized white rabbit basilar artery at 10 uM
Format: functional, tissue-based
Settings: Oryctolagus cuniculus

Compound	Activity [%]
COc1cc(/C=C/C(=O)c2cccc(NC(C)=O)c2)ccc1O	20.6
COc1cc(/C=C/C(=O)c2cccc(NS(=O)(=O)c3ccc(Cl)cc3Cl)c2)ccc1O	4.2
COc1cc(/C=C/C(=O)c2cccc(NS(=O)(=O)c3cc(Cl)cc(Cl)c3)c2)ccc1O	37.3
COc1cc(/C=C/C(=O)c2cccc(NS(=O)(=O)C(C)C)c2)ccc1O	8.4
COc1cc(/C=C/C(=O)c2cccc(NS(=O)(=O)c3c(Cl)cccc3Cl)c2)ccc1O	99.4
COc1cc(/C=C/C(=O)c2cccc(NC(=O)C(C)C)c2)ccc1O	22.5
COc1cc(/C=C/C(=O)c2cccc(NS(=O)(=O)c3ccccc3)c2)ccc1O	40.4
CCCC(=O)Nc1cccc(C(=O)/C=C/c2ccc(O)c(OC)c2)c1	32.3
COc1cc(/C=C/C(=O)c2cccc(NS(C)(=O)=O)c2)ccc1O	4.2
COc1cc(/C=C/C(=O)c2cccc(NS(=O)(=O)c3cccs3)c2)ccc1O	36.1
COc1cc(/C=C/C(=O)c2cccc(NC(=O)c3ccco3)c2)ccc1O	41.7
CCCS(=O)(=O)Nc1cccc(C(=O)/C=C/c2ccc(O)c(OC)c2)c1	42.3
COc1cc(/C=C/C(=O)c2cccc(NS(=O)(=O)c3ccc(F)cc3)c2)ccc1O	71.8
COc1cc(/C=C/C(=O)c2cccc(N)c2)ccc1O	8.3
COc1ccc(S(=O)(=O)Nc2cccc(C(=O)/C=C/c3ccc(O)c(OC)c3)c2)cc1	26.4
COc1cc(/C=C/C(=O)c2cccc(NS(=O)(=O)c3ccc(Cl)c(Cl)c3)c2)ccc1O	30.2
COc1cc(/C=C/C(=O)c2cccc(NS(=O)(=O)c3cccc(C(F)(F)F)c3)c2)ccc1O	52.3
COc1cc(/C=C/C(=O)CC(=O)/C=C/c2ccc(O)c(OC)c2)ccc1O [CURCUMIN]	58.4
COc1cc(/C=C/C(=O)c2cccc(NS(=O)(=O)c3ccc(OC(F)(F)F)cc3)c2)ccc1O	76.7
COc1cc(/C=C/C(=O)c2cccc(NC(=O)c3ccc(Cl)cc3Cl)c2)ccc1O	27.9
COc1cc(/C=C/C(=O)c2cccc(NS(=O)(=O)c3ccc(C(F)(F)F)cc3)c2)ccc1O	65.8
COc1cc(/C=C/C(=O)c2cccc(NC(=O)c3cccs3)c2)ccc1O	27.1
COc1cc(/C=C/C(=O)c2cccc(NS(=O)(=O)c3ccc(Cl)cc3)c2)ccc1O	93.4

Experiment: Vasodilation activity against depolarization-induced contraction in anaesthetized white rabbit basilar artery
Format: functional, tissue-based, Oryctolagus cuniculus
Settings: not given

Compound	EC50 [µM]
COc1cc(/C=C/C(=O)c2cccc(NS(=O)(=O)c3c(Cl)cccc3Cl)c2)ccc1O	2.78
COc1cc(/C=C/C(=O)CC(=O)/C=C/c2ccc(O)c(OC)c2)ccc1O [CURCUMIN]	7.48
COc1cc(/C=C/C(=O)c2cccc(NS(=O)(=O)c3ccc(Cl)cc3)c2)ccc1O	5.58
